pIC50: −log10 of the molar value. Read-outs that look alike come from different tables or passages of the source.
Assays:
VEGFR2 [1] = biological target: T1, VEGFR2 (Homo sapiens, UniProt P35968); conditions: relative IC50: reported IC50 toward VEGFR2 divided by next lowest reported IC50 to any gene target
any gene target = conditions: cited from earlier work
VEGFR2 [2] = biological target: T1, VEGFR2; conditions: reported IC50 to VEGFR2, read-out: VEGFR2 IC50_μM, cited from earlier work
[3] = lowest reported IC50 to any gene target, read-out: min IC50
[4] = next lowest IC50 value to any gene target, Table 3, read-out: Min IC50_μM
[5] = Table 3, selective inhibitors of VEGFR2
[6] = next lowest IC50 value to any gene target, read-out: Min IC50_μM

T1 sequence (P35968 20-1356, species assumed): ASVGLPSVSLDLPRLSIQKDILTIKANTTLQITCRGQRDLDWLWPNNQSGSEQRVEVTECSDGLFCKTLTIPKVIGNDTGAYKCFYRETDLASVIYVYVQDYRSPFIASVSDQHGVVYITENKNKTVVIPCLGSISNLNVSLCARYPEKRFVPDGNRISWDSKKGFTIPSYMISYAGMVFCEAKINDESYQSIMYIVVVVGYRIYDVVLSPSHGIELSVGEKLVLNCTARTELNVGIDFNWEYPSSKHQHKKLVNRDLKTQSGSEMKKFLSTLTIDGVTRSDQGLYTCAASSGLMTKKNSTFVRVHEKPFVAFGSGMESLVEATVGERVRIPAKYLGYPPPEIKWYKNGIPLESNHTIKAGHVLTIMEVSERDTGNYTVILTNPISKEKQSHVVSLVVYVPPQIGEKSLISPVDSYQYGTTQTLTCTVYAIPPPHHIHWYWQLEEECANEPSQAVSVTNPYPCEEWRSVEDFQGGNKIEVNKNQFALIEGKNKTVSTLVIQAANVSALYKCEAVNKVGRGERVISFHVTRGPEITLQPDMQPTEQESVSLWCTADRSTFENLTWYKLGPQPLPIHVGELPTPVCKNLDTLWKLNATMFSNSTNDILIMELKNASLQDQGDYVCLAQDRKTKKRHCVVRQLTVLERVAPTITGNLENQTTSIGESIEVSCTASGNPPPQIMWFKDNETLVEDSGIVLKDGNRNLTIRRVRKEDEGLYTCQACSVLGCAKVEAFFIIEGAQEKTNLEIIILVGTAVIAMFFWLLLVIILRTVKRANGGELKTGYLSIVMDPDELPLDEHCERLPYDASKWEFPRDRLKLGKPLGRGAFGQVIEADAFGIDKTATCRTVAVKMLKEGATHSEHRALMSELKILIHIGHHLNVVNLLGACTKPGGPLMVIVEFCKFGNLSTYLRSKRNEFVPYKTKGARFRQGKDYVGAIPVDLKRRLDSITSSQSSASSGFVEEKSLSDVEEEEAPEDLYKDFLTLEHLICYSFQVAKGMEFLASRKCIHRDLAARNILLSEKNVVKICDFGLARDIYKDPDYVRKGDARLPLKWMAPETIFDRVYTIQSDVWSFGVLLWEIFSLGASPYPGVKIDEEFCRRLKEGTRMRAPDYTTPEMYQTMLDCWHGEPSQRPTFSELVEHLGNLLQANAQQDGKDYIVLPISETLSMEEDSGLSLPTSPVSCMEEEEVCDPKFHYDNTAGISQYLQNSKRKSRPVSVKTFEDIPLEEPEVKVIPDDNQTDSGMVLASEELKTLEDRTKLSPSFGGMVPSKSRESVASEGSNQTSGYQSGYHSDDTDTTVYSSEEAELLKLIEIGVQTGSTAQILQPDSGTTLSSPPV

For COC(=O)c1ccc2c(C(=Nc3ccc(C(=O)N(C)CCN(C)C)cc3)c3ccccc3)c(O)[nH]c2c1 [compound 135452890, Methyl 3-[N-[4-[2-(dimethylamino)ethyl-methylcarbamoyl]phenyl]-C-phenylcarbonimidoyl]-2-hydroxy-1H-indole-6-carboxylate], the “VEGFR2, rIC50” value (VEGFR2 [1]) was 2.2.
In the case of CONC(=O)c1cc(Nc2ncnn3cc(-c4nc(C)no4)c(C(C)C)c23)c(F)cc1F [compound 11419379, 2,4-Difluoro-5-[5-isopropyl-6-(3-methyl-[1,2,4]oxadiazol-5-yl)-pyrrolo[2,1-f][1,2,4]triazin-4-ylamino]-N-methoxy-benzamide, reference compound], the pIC50 (any gene target; [3]) is listed as 8.15, the pIC50 (any gene target; [4]) is listed as 8.17 and the pIC50 (VEGFR2 [2]; [5]) is listed as 8.17. The “VEGFR2, rIC50” value (VEGFR2 [1]) was 1.0.
In the case of CONC(=O)c1cc(Nc2ncnn3cc(NC(=O)OCC4CCCO4)c(C(C)C)c23)c(F)cc1F (centres unmarked) [compound 11477626, [4-(2,4-Difluoro-5-methoxycarbamoyl-phenylamino)-5-isopropyl-pyrrolo[2,1-f][1,2,4]triazin-6-yl]-carbamic acid tetrahydro-furan-2-ylmethyl ester], the “VEGFR2, rIC50” value (VEGFR2 [1]) was 1.0.
In the case of CONC(=O)c1cc(Nc2ncnn3cc(-c4nnc(C5CC5)o4)c(C(C)C)c23)c(F)cc1F [compound 11465545, 5-[6-(5-Cyclopropyl-[1,3,4]oxadiazol-2-yl)-5-isopropyl-pyrrolo[2,1-f][1,2,4]triazin-4-ylamino]-2,4-difluoro-N-methoxy-benzamide, reference compound], the pIC50 (any gene target; [3]) is listed as 8.40, the pIC50 (any gene target; [4]) is listed as 8.44 and the pIC50 (VEGFR2 [2]; [5]) is listed as 8.44. For the same molecule, the “VEGFR2, rIC50” value (VEGFR2 [1]) was 1.0.
For COC(=O)c1ccc2c(c1)NC(=O)C2=C(Nc1ccc(CN(C)C)cc1)c1ccccc1 [compound 135522918, Methyl 3-[[4-[(dimethylamino)methyl]anilino]-phenylmethylidene]-2-oxo-1H-indole-6-carboxylate], the “VEGFR2, rIC50” value (VEGFR2 [1]) was 2.3.
For Nc1c(C(=O)c2cc3ccccc3[nH]2)cnn1-c1ccc2nc[nH]c2c1 [compound 68005732, [5-Amino-1-(1H-benzimidazol-6-yl)-1H-pyrazol-4-yl]-1H-indol-2-ylMethanone], the “VEGFR2, rIC50” value (VEGFR2 [1]) was 10.3.
In the case of COC(=O)c1ccc2c(c1)NC(=O)/C2=C(\Nc1ccc(N(CCN(C)C)S(C)(=O)=O)cc1)c1ccccc1 [compound 135456078, Methyl (3Z)-3-[[4-[2-(dimethylamino)ethyl-methylsulfonylamino]anilino]-phenylmethylidene]-2-oxo-1H-indole-6-carboxylate], the “VEGFR2, rIC50” value (VEGFR2 [1]) was 2.3.
In the case of COC(=O)c1ccc2c(c1)NC(=O)/C2=C(\Nc1ccc(N(CCN(C)C)C(C)=O)cc1)c1ccccc1 [compound 135528963, Methyl (3Z)-3-[[4-[acetyl-[2-(dimethylamino)ethyl]amino]anilino]-phenylmethylidene]-2-oxo-1H-indole-6-carboxylate], the “VEGFR2, rIC50” value (VEGFR2 [1]) was 2.4.
For COC(=O)c1ccc2c(c1)NC(=O)/C2=C(\Nc1ccc(N(CCCN(C)C)C(C)=O)cc1)c1ccccc1 [compound 135405065], the “VEGFR2, rIC50” value (VEGFR2 [1]) was 3.0.
For CONC(=O)c1cc(Nc2ncnn3cc(-c4nnc(CC5CC5)o4)c(C(C)C)c23)c(F)cc1F [compound 11155938, 5-[6-(5-Cyclopropylmethyl-[1,3,4]oxadiazol-2-yl)-5-isopropyl-pyrrolo[2,1-f][1,2,4]triazin-4-ylamino]-2,4-difluoro-N-methoxy-benzamide, reference compound], the pIC50 (any gene target; [3]) is listed as 8.40, the pIC50 (any gene target; [4]) is listed as 8.40 and the pIC50 (VEGFR2 [2]; [5]) is listed as 8.40. For the same molecule, the “VEGFR2, rIC50” value (VEGFR2 [1]) was 1.0.
With CCN1CCC(Nc2ccc3[nH]c(O)c(C(=C4N=c5ccccc5=N4)c4cccc(F)c4)c3c2)CC1 [compound 135488014, 3-[Benzimidazol-2-ylidene-(3-fluorophenyl)methyl]-5-[(1-ethylpiperidin-4-yl)amino]-1H-indol-2-ol] the “VEGFR2, rIC50” value (VEGFR2 [1]) was 0.6.
With CCN1CCC(Nc2ccc3[nH]c(O)c(C(=C4N=c5ccccc5=N4)c4ccccc4)c3c2)CC1 [compound 135405015, 3-[Benzimidazol-2-ylidene(phenyl)methyl]-5-[(1-ethylpiperidin-4-yl)amino]-1H-indol-2-ol] the “VEGFR2, rIC50” value (VEGFR2 [1]) was 2.0.
With CCN1CCC(Nc2ccc3[nH]c(O)c(C(=C4N=c5ccccc5=N4)c4ccc(C)cc4)c3c2)CC1 [compound 135507297, 3-[Benzimidazol-2-ylidene-(4-methylphenyl)methyl]-5-[(1-ethylpiperidin-4-yl)amino]-1H-indol-2-ol] the “VEGFR2, rIC50” value (VEGFR2 [1]) was 1.6.
In the case of CCN1CCC(Nc2ccc3[nH]c(O)c(C(=C4N=c5ccccc5=N4)c4cc(F)cc(F)c4)c3c2)CC1 [compound 135546228, 3-[Benzimidazol-2-ylidene-(3,5-difluorophenyl)methyl]-5-[(1-ethylpiperidin-4-yl)amino]-1H-indol-2-ol], the “VEGFR2, rIC50” value (VEGFR2 [1]) was 0.7.
With COC(=O)c1ccc2c(c1)NC(=O)/C2=C(\Nc1ccc(N(CC(=O)N(C)C)C(C)=O)cc1)c1ccccc1 [compound 135456052, Methyl (3Z)-3-[[4-[acetyl-[2-(dimethylamino)-2-oxoethyl]amino]anilino]-phenylmethylidene]-2-oxo-1H-indole-6-carboxylate] the “VEGFR2, rIC50” value (VEGFR2 [1]) was 1.3.
For Cc1ccc(NC(=O)C2(C(=O)Nc3ccc(Nc4ncc(F)c(-c5cc(F)c6nc(C)n(C(C)C)c6c5)n4)cc3)CC2)cc1 [compound 155517777], the pIC50 (any gene target; [4]) is given as 7.34 and the pIC50 (VEGFR2 [2]; [5]) is given as 7.34.
In the case of COc1cc(C2=C(c3c[nH]c4ccccc34)C(=O)NC2=O)cc(OC)c1OC [compound 11530963], the pIC50 (any gene target; [6]) is given as 8.30 and the pIC50 (VEGFR2 [2]) is given as 8.60.
In the case of Cc1nc2cc(N(C)c3ccnc(Nc4cccc(S(N)(=O)=O)c4)n3)ccc2n1C [compound 10273854], the pIC50 (any gene target; [6]) is listed as 5.05 and the pIC50 (VEGFR2 [2]) is listed as 7.77.
For CC(C)Oc1cc2c(Nc3ccc(Cl)c(Cl)c3)ncnc2cc1OCC1CN(C)CCO1 (centres unmarked) [compound 57802797], the pIC50 (any gene target; [6]) is listed as 7.30 and the pIC50 (VEGFR2 [2]) is listed as 7.30.
In the case of COc1cc2c(Nc3ccc(Br)c(Cl)c3F)ncnc2cc1OC[C@@H]1CN(C)CC(=O)N1C [compound 57802721], the pIC50 (any gene target; [6]) is listed as 7.30 and the pIC50 (VEGFR2 [2]) is listed as 7.30.
In the case of COc1cc2c(Nc3ccc(Cl)c(Cl)c3F)ncnc2cc1OC[C@@H]1CN2CCC[C@@H]2C(=O)N1 [compound 53630924], the pIC50 (any gene target; [4]) is listed as 7.30 and the pIC50 (VEGFR2 [2]; [5]) is listed as 7.30.
With Nc1c(C(=O)c2cc3cc(CN4CCOCC4)ccc3[nH]2)cnn1-c1cc(O)ccc1Cl [compound 134156584, [5-Amino-1-(2-chloro-5-hydroxyphenyl)pyrazol-4-yl]-[5-(morpholin-4-ylmethyl)-1H-indol-2-yl]methanone] the “VEGFR2, rIC50” value (VEGFR2 [1]) was 5.6.
For CCN1CCCC(c2nc(COc3cc4ncnc(Nc5ccc(Cl)c(Cl)c5)c4cc3OC)no2)C1 (centres unmarked) [compound 58013772], the pIC50 (any gene target; [4]) is listed as 7.30 and the pIC50 (VEGFR2 [2]; [5]) is listed as 7.30.
In the case of COc1cc2c(Nc3cc(Cl)c(Br)cc3F)ncnc2cc1OC[C@H]1CN2CCOC[C@H]2CO1 [compound 10030541], the pIC50 (any gene target; [4]) is listed as 7.30 and the pIC50 (VEGFR2 [2]; [5]) is listed as 7.30.
In the case of Oc1cc(O)c2cc(O)c(-c3cc(O)c(O)c(O)c3)[o+]c2c1 [compound 68245], the pIC50 (any gene target; [6]) is given as 8.20 and the pIC50 (VEGFR2 [2]) is given as 8.29.
In the case of Cc1nn(C)c2cc(N(C)c3ccnc(Nc4cccc(S(N)(=O)=O)c4)n3)ccc12 [compound 24949545], the pIC50 (any gene target; [6]) is listed as 6.00 and the pIC50 (VEGFR2 [2]) is listed as 7.44.
In the case of COc1cc2ncnc(Nc3ccc(Br)cc3)c2cc1OCCCCC(=O)NO [compound 127028028], the pIC50 (any gene target; [6]) is listed as 7.17 and the pIC50 (VEGFR2 [2]) is listed as 7.23.
